Assay results: ChEMBL document CHEMBL1629623, “In vitro activity of the quinolone WCK 771 against recent U.S. hospital and community-acquired Staphylococcus aureus pathogens with various resistance types” (Antimicrob Agents Chemother, 2009)
≈ marks a conversion by molar mass, not a printed value. Calls of active or inactive are those of the source. The rule behind the calls is not given here.

Legend:
Staphylococcus aureus [1] = assay: Antibacterial activity against Staphylococcus aureus after 24 hrs by CLSI method; type: functional
Staphylococcus aureus [2] = assay: Antibacterial activity against methicillin-susceptible Staphylococcus aureus after 24 hrs by CLSI method; type: functional
Staphylococcus aureus [3] = assay: Antibacterial activity against community acquired methicillin-resistant Staphylococcus aureus after 24 hrs by CLSI method; type: functional
Staphylococcus aureus [4] = assay: Antibacterial activity against hospital acquired methicillin-resistant Staphylococcus aureus after 24 hrs by CLSI method; type: functional
Staphylococcus aureus [5] = assay: Antibacterial activity against vancomycin-intermediate Staphylococcus aureus after 24 hrs by CLSI method; type: functional
Staphylococcus aureus [6] = assay: Antibacterial activity against quinolone-resistant Staphylococcus aureus after 24 hrs by CLSI method; type: functional
Staphylococcus aureus [7] = assay: Antibacterial activity against vancomycin-intermediate Staphylococcus aureus Mu50 harboring GyrA S84L and GrlA S80F mutant after 24 hrs by CLSI method; type: functional; conditions: Mu50, 24 h
Staphylococcus aureus [8] = assay: Antibacterial activity against vancomycin-resistant Staphylococcus aureus VRS1 harboring GyrA S84L and GrlA S80F mutant after 24 hrs by CLSI method; type: functional; conditions: VRS1, 24 h
Staphylococcus aureus [9] = assay: Antibacterial activity against vancomycin-resistant Staphylococcus aureus VRS2 harboring GyrA S84L and GrlA S80F mutant after 24 hrs by CLSI method; type: functional; conditions: VRS2, 24 h
Staphylococcus aureus [10] = assay: Antibacterial activity against vancomycin-resistant Staphylococcus aureus VRS3 harboring GyrA S84L and GrlA S80F, E84K mutant after 24 hrs by CLSI method; type: functional; conditions: VRS3, 24 h
Staphylococcus aureus [11] = assay: Antibacterial activity against vancomycin-resistant Staphylococcus aureus VRS6 harboring GyrA S84L and GrlA S80F, E84G mutant after 24 hrs by CLSI method; type: functional; conditions: VRS6, 24 h
Staphylococcus aureus [12] = assay: Antibacterial activity against vancomycin-resistant Staphylococcus aureus VRS5 harboring GyrA S84L, E88K and GrlA S80Y, E84G mutant after 24 hrs by CLSI method; conditions: VRS5, 24 h
Staphylococcus aureus [13] = assay: Antibacterial activity against vancomycin-resistant Staphylococcus aureus VRS7 harboring GyrA S84L and GrlA S80F mutant after 24 hrs by CLSI method; type: functional, organism-based
Staphylococcus aureus [14] = assay: Antibacterial activity against vancomycin-resistant Staphylococcus aureus VRS4 harboring GyrA S84L and GrlA S80F, E84K mutant after 24 hrs by CLSI method; type: functional, organism-based
[15] = AUC in human at 800 mg, iv qd after 24 hrs; type: ADME, organism-based; design: dose 800 mg, time < 24 hr, route intravenous; conditions: plasma
[16] = Ratio of AUC in human to MIC for Staphylococcus aureus after 24 hrs; type: functional
Staphylococcus aureus [17] = assay: microbe, parasite or virus in culture; conditions: Staphylococcus aureus, 32, 24 h
Description: Antibacterial activity against vancomycin-susceptible methicillin-resistant Staphylococcus aureus 32 harboring GyrA S84L and GrlA S80Y mutant after 24 hrs by CLSI method

Staphylococcus aureus [18] = assay: microbe, parasite or virus in culture; conditions: Staphylococcus aureus, 34, 24 h
Description: Antibacterial activity against vancomycin-susceptible methicillin-resistant Staphylococcus aureus 34 harboring GyrA S84L and GrlA S80F mutant after 24 hrs by CLSI method

Staphylococcus aureus [19] = assay: microbe, parasite or virus in culture; conditions: Mu3, 24 h
Description: Antibacterial activity against vancomycin-intermediate Staphylococcus aureus Mu3 harboring GyrA S84L and GrlA S80F mutant after 24 hrs by CLSI method

Structure (SMILES)	MIC50 (Staphylococcus aureus [1]) [µg/mL]	MIC90 (Staphylococcus aureus [1]) [µg/mL]	MIC50 (Staphylococcus aureus [2]) [µg/mL]	MIC90 (Staphylococcus aureus [2]) [µg/mL]	MIC50 (Staphylococcus aureus [3]) [µg/mL]	MIC90 (Staphylococcus aureus [3]) [µg/mL]	MIC50 (Staphylococcus aureus [4]) [µg/mL]	MIC90 (Staphylococcus aureus [4]) [µg/mL]	MIC50 (Staphylococcus aureus [5]) [µg/mL]	MIC90 (Staphylococcus aureus [5]) [µg/mL]	MIC50 (Staphylococcus aureus [6]) [µg/mL]	MIC90 (Staphylococcus aureus [6]) [µg/mL]	MIC (Staphylococcus aureus [7]) [µg/mL]	MIC (Staphylococcus aureus [8]) [µg/mL]	MIC (Staphylococcus aureus [9]) [µg/mL]	MIC (Staphylococcus aureus [10]) [µg/mL]	MIC (Staphylococcus aureus [11]) [µg/mL]	MIC (Staphylococcus aureus [12]) [µg/mL]	also measured
CN[C@H](CC(C)C)C(=O)N[C@H]1C(=O)N[C@@H](CC(N)=O)C(=O)N[C@H]2C(=O)N[C@H]3C(=O)N[C@H](C(=O)N[C@H](C(=O)O)c4cc(O)cc(O)c4-c4cc3ccc4O)[C@H](O)c3ccc(c(Cl)c3)Oc3cc2cc(c3O[C@@H]2O[C@H](CO)[C@@H](O)[C@H](O)[C@H]2O[C@H]2C[C@](C)(N)[C@H](O)[C@H](C)O2)Oc2ccc(cc2Cl)[C@H]1O [VANCOMYCIN]	1 (≈ 0.69 µM)	1 (≈ 0.69 µM)	1 (≈ 0.69 µM)	1 (≈ 0.69 µM)	1 (≈ 0.69 µM)	1 (≈ 0.69 µM)	1 (≈ 0.69 µM)	4 (≈ 2.76 µM)	4 (≈ 2.76 µM)	4 (≈ 2.76 µM)	1 (≈ 0.69 µM)	4 (≈ 2.76 µM)	8 (≈ 5.52 µM)	128 (≈ 88.3 µM)	32 (≈ 22.1 µM)	64 (≈ 44.2 µM)	128 (≈ 88.3 µM)	64 (≈ 44.2 µM)	–
C[C@H]1CCc2c(N3CCC(O)CC3)c(F)cc3c(=O)c(C(=O)O)cn1c23.N=C(N)NCCC[C@H](N)C(=O)O	0.03	1	0.03	0.25	0.03	0.5	0.5	1	0.25	0.5	0.5	1	1	0.5	0.5	0.5	0.5	8	Activity (Staphylococcus aureus [13]): Active; Activity (Staphylococcus aureus [14]): Active; AUC at 24 h [15]: 390 µg·h/mL; RatioAUC/MIC [16]: 58.5; MIC (Staphylococcus aureus [17]): 0.5 µg/mL; MIC (Staphylococcus aureus [18]): 0.5 µg/mL; MIC (Staphylococcus aureus [19]): 1 µg/mL
